This assay addresses human plasma kallikrein (Homo sapiens (Human), UniProt P03952). The assay is described as follows: Plasma kallikrein activity assay (chromogenic substrate S2302). The format is biochemical. Conditions: 2 nM kallikrein, 80 μM S2302, 30° C., pH 7.8, Ki by Cheng-Prusoff equation, values given as ranges.

Read-outs that look alike come from different tables or passages of the source.

Drawing on patent US11203574B2 (BioCryst Pharmaceuticals, Inc., priority 2014, dated 2021), this text covers Ki for 29 compounds.

Chain of human plasma kallikrein (P03952 whole entry, looked up): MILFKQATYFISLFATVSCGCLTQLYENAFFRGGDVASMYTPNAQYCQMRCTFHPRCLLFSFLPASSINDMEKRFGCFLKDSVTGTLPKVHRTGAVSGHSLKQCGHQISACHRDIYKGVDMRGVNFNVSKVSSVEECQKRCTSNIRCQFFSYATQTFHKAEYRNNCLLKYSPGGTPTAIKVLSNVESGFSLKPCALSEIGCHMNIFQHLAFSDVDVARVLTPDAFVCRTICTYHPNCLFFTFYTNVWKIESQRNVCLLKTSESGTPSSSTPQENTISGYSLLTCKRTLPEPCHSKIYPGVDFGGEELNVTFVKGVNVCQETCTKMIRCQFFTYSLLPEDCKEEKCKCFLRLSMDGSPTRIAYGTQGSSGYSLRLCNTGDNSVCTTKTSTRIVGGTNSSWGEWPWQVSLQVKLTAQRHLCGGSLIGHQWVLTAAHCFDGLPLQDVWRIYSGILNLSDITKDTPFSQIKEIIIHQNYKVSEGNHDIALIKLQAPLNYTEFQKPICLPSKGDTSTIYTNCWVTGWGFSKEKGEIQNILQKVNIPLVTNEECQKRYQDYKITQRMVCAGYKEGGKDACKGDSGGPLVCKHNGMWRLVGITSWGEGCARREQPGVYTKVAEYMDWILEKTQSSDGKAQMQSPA
Chain of human plasma kallikrein (P03952 whole entry partner, looked up): as the sequence (P03952 whole entry, looked up) above

The term Ki denotes the dissociation constant of the complex between target and ligand, obtained from inhibition or displacement. For `CC(C)C(=O)NC(CCC1CC1)(c1cccnc1)c1ccc(F)c(NC(=O)c2cc(C(F)(F)F)nn2-c2cccc(CN)c2)c1` (single isomer, unassigned; (-)) [244j, (−)-1-(3-(aminomethyl)phenyl)-N-(5-(3-cyclopropyl-1-isobutyramido-1-(pyridin-3-yl)propyl)-2-fluorophenyl)-3-(trifluoromethyl)-1H-pyrazole-5-carboxamide], the inhibition constant (Ki) (read-out: Ki) lay within 0.1 to 50 nM. On the same count and under the same terms, the figure for `CC(C)CC(=O)NC(CCC1CC1)(c1cccnc1)c1ccc(F)c(NC(=O)c2cc(C(F)(F)F)nn2-c2cccc(CN)c2)c1` (single isomer, unassigned; (-)) [244k, (−)-1-(3-(aminomethyl)phenyl)-N-(5-(3-cyclopropyl-1-(3-methylbutanamido)-1-(pyridin-3-yl)propyl)-2-fluorophenyl)-3-(trifluoromethyl)-1H-pyrazole-5-carboxamide] is 0.1 to 50 nM. In the case of `CS(=O)(=O)NC(CCC1CC1)(c1ccncc1)c1ccc(F)c(NC(=O)c2cc(C(F)(F)F)nn2-c2cccc(CN)c2)c1` (single isomer, unassigned; (-)) [245c, (−)-1-(3-(aminomethyl)phenyl)-N-(5-(3-cyclopropyl-1-(methylsulfonamido)-1-(pyridin-4-yl)propyl)-2-fluorophenyl)-3-(trifluoromethyl)-1H-pyrazole-5-carboxamide], where the note is “read-out: Ki”, the Ki lay in the range of 0.1 to 50 nM. The same measure, in the same setting: the result for `CS(=O)(=O)NC(CCC1CC1)(c1ccncc1)c1ccc(F)c(NC(=O)c2cc(C(F)(F)F)nn2-c2ccc3ccnc(N)c3c2)c1` (single isomer, unassigned; (-)) [262f, (−)-1-(1-aminoisoquinolin-7-yl)-N-(5-(3-cyclopropyl-1-(methylsulfonamido)-1-(pyridin-4-yl)propyl)-2-fluorophenyl)-3-(trifluoromethyl)-1H-pyrazole-5-carboxamide] reads 0.1 to 50 nM. On the same count and under the same terms, the result for `CCNCc1cccc(-n2nc(C(F)(F)F)cc2C(=O)Nc2cc(C(NCC3CC3)c3ccccc3)ccc2F)c1` (single isomer, unassigned; (-)) [270a, (−)-N-(5-((cyclopropylmethylamino)(phenyl)methyl)-2-fluorophenyl)-1-(3-((ethylamino)methyl)phenyl)-3-(trifluoromethyl)-1H-pyrazole-5-carboxamide] reads 50 to 100 nM; that for `CCOC(c1ccccc1)c1cccc(NC(=O)c2cc(C(F)(F)F)nn2-c2cccc(CN)c2)c1` (centres unmarked) [18g, 1-(3-(aminomethyl)phenyl)-N-(3-(ethoxy(phenyl)methyl)phenyl)-3-(trifluoromethyl)-1H-pyrazole-5-carboxamide], 50 to 100 nM.

For `CCCOC(c1ccccc1)c1cccc(NC(=O)c2cc(C(F)(F)F)nn2-c2cccc(CN)c2)c1` (centres unmarked) [18h, 1-(3-(aminomethyl)phenyl)-N-(3-(phenyl(propoxy)methyl)phenyl)-3-(trifluoromethyl)-1H-pyrazole-5-carboxamide], the Ki (read-out: Ki) was in the range of 50 to 100 nM. Still for that read-out and setting: the result for `CC(C)COC(c1ccccc1)c1cccc(NC(=O)c2cc(C(F)(F)F)nn2-c2cccc(CN)c2)c1` (centres unmarked) [18i, 1-(3-(aminomethyl)phenyl)-N-(3-(isobutoxy(phenyl)methyl)phenyl)-3-(trifluoromethyl)-1H-pyrazole-5-carboxamide] reads 50 to 100 nM; that for `NCc1cccc(-n2nc(C(F)(F)F)cc2C(=O)Nc2cccc(C(OCC3CC3)c3ccccc3)c2)c1` (centres unmarked) [18k, 1-(3-(aminomethyl)phenyl)-N-(3-((cyclopropylmethoxy)(phenyl)methyl)phenyl)-3-(trifluoromethyl)-1H-pyrazole-5-carboxamide], 0.1 to 50 nM; that for `CCOC(c1ccccc1)c1ccc(F)c(NC(=O)c2cc(C(F)(F)F)nn2-c2cccc(CN)c2)c1` (centres unmarked) [25b, 1-(3-(aminomethyl)phenyl)-N-(5-(ethoxy(phenyl)methyl)-2-fluorophenyl)-3-(trifluoromethyl)-1H-pyrazole-5-carboxamide], 50 to 100 nM. On the same count and under the same terms, the result for `CCCN(c1ccccc1)c1cccc(NC(=O)c2cc(C(F)(F)F)nn2-c2cccc(CN)c2)c1` [27f, 1-(3-(aminomethyl)phenyl)-N-(3-(phenyl(propyl)amino)phenyl)-3-(trifluoromethyl)-1H-pyrazole-5-carboxamide] reads 50 to 100 nM.

Consider `CCCN(c1ccccc1)c1cccc(NC(=O)c2cc(C(F)(F)F)nn2-c2cccc(CN)c2)c1F` [29e, 1-(3-(aminomethyl)phenyl)-N-(2-fluoro-3-(phenyl(propyl)amino)phenyl)-3-(trifluoromethyl)-1H-pyrazole-5-carboxamide], for which the Ki (read-out: Ki) lay within 0.1 to 50 nM. On the same count and under the same terms, the figure for `CCCCC(c1ccccc1)c1cccc(NC(=O)c2cc(C(F)(F)F)nn2-c2cccc(CN)c2)c1` (centres unmarked) [32f, 1-(3-(aminomethyl)phenyl)-N-(3-(1-phenylpentyl)phenyl)-3-(trifluoromethyl)-1H-pyrazole-5-carboxamide] is 50 to 100 nM. Still for that read-out and setting: the figure for `NCc1cccc(-n2nc(C(F)(F)F)cc2C(=O)Nc2cccc(C(O)c3ccccc3)c2F)c1` (centres unmarked) [35g, 1-(3-(aminomethyl)phenyl)-N-(2-fluoro-3-(hydroxy(phenyl)methyl)phenyl)-3-(trifluoromethyl)-1H-pyrazole-5-carboxamide] is 50 to 100 nM; for `NCc1cccc(-n2nc(C(F)(F)F)cc2C(=O)Nc2cccc(C(OCC3CC3)c3ccccc3)c2F)c1` (centres unmarked) [36d, 1-(3-(aminomethyl)phenyl)-N-(3-((cyclopropylmethoxy)(phenyl)methyl)-2-fluorophenyl)-3-(trifluoromethyl)-1H-pyrazole-5-carboxamide] it is 0.1 to 50 nM; for `NCc1cccc(-n2nc(C(F)(F)F)cc2C(=O)Nc2cccc(C(O)(CCC3CC3)c3ccccn3)c2)c1` (centres unmarked) [45g, 1-(3-(aminomethyl)phenyl)-N-(3-(3-cyclopropyl-1-hydroxy-1-(pyridin-2-yl)propyl)phenyl)-3-(trifluoromethyl)-1H-pyrazole-5-carboxamide] it is 0.1 to 50 nM. On the same count and under the same terms, the figure for `NCc1cccc(-n2nc(C(F)(F)F)cc2C(=O)Nc2cccc(C(OCC3CC3)c3cccc(N)c3)c2)c1` (centres unmarked) [53f, 1-(3-(aminomethyl)phenyl)-N-(3-((3-aminophenyl)(cyclopropyl-methoxy)methyl)phenyl)-3-(trifluoromethyl)-1H-pyrazole-5-carboxamide] is 0.1 to 50 nM. The compound `NCc1cccc(-n2nc(C(F)(F)F)cc2C(=O)Nc2cccc(C(OCCC3CC3)c3ccccc3)c2)c1` (centres unmarked) [74a, 1-(3-(aminomethyl)phenyl)-N-(3-((2-cyclopropylethoxy)(phenyl)methyl)phenyl)-3-(trifluoromethyl)-1H-pyrazole-5-carboxamide] gave a Ki (Ki) of 0.1 to 50 nM. For `NCc1cccc(-n2nc(C(F)(F)F)cc2C(=O)Nc2cccc(C(OCC3CCC3)c3ccccc3)c2)c1` (centres unmarked) [75a, 1-(3-(aminomethyl)phenyl)-N-(3-((cyclobutylmethoxy)(phenyl)methyl)phenyl)-3-(trifluoromethyl)-1H-pyrazole-5-carboxamide], for the setting “read-out: Ki”, the Ki lay within 50 to 100 nM.

Turning to `CCCN(c1ccccc1)c1ccc(F)c(NC(=O)c2cc(C(F)(F)F)nn2-c2cccc(CN)c2)c1` [77e, 1-(3-(aminomethyl)phenyl)-N-(2-fluoro-5-(phenyl(propyl)amino)phenyl)-3-(trifluoromethyl)-1H-pyrazole-5-carboxamide], the Ki (read-out: Ki) is 0.1 to 50 nM. The same measure, in the same setting: the figure for `NCc1cccc(-n2nc(C(F)(F)F)cc2C(=O)Nc2cccc(C(CCC3CC3)c3ccccc3)c2)c1` (centres unmarked) [78d, 1-(3-(aminomethyl)phenyl)-N-(3-(3-cyclopropyl-1-phenylpropyl)phenyl)-3-(trifluoromethyl)-1H-pyrazole-5-carboxamide] is 0.1 to 50 nM; for `NCc1cccc(-n2nc(C(F)(F)F)cc2C(=O)Nc2cccc(C(NCC3CC3)c3cccnc3)c2)c1` (centres unmarked) [79f, 1-(3-(Aminomethyl)phenyl)-N-(3-(((cyclopropylmethyl)amino)(pyridin-3-yl)methyl)phenyl)-3-(trifluoromethyl)-1H-pyrazole-5-carboxamide] it is 0.1 to 50 nM. In the case of `NCc1cccc(-n2nc(C(F)(F)F)cc2C(=O)Nc2cc(F)cc(C(OCC3CC3)c3ccccc3)c2)c1` (centres unmarked) [80h, 1-(3-(aminomethyl)phenyl)-N-(3-((cyclopropylmethoxy)(phenyl)methyl)-5-fluorophenyl)-3-(trifluoromethyl)-1H-pyrazole-5-carboxamide], the Ki (read-out: Ki) lay within 0.1 to 50 nM. As to `NCc1cccc(-n2nc(C(F)(F)F)cc2C(=O)Nc2cccc(C(OCC3CC3)c3nccs3)c2)c1` (centres unmarked) [82f, 1-(3-(aminomethyl)phenyl)-N-(3-((cyclopropylmethoxy)(thiazol-2-yl)methyl)phenyl)-3-(trifluoromethyl)-1H-pyrazole-5-carboxamide], where the note is “read-out: Ki”, the Ki was in the range of 0.1 to 50 nM. Take `NCc1cccc(-n2nc(C(F)(F)F)cc2C(=O)Nc2cccc(C(NCC3CC3)c3ccccn3)c2)c1` (centres unmarked) [83c, 1-(3-(aminomethyl)phenyl)-N-(3-((cyclopropylmethylamino)(pyridin-2-yl)methyl)phenyl)-3-(trifluoromethyl)-1H-pyrazole-5-carboxamide]: the Ki (read-out: Ki) was in the range of 0.1 to 50 nM. Still for that read-out and setting: the result for `NCc1cccc(-n2nc(C(F)(F)F)cc2C(=O)Nc2cccc(C(NCC3CC3)c3cn[nH]c3)c2)c1` (centres unmarked) [84h, 1-(3-(aminomethyl)phenyl)-N-(3-(((cyclopropylmethyl)amino)(1H-pyrazol-4-yl)methyl)phenyl)-3-(trifluoromethyl)-1H-pyrazole-5-carboxamide] reads 0.1 to 50 nM; that for `NCc1cccc(-n2nc(C(F)(F)F)cc2C(=O)Nc2cccc(C(NCC3CC3)c3nccs3)c2)c1` (centres unmarked) [85c, 1-(3-(aminomethyl)phenyl)-N-(3-((cyclopropylmethylamino)(thiazol-2-yl)methyl)phenyl)-3-(trifluoromethyl)-1H-pyrazole-5-carboxamide], 0.1 to 50 nM; that for `NCc1cccc(-n2nc(C(F)(F)F)cc2C(=O)Nc2cccc(C(NCC3CC3)c3ccncc3)c2)c1` (centres unmarked) [86g, 1-(3-(aminomethyl)phenyl)-N-(3-((cyclopropylmethylamino)(pyridin-4-yl)methyl)phenyl)-3-(trifluoromethyl)-1H-pyrazole-5-carboxamide], 0.1 to 50 nM. On the same count and under the same terms, the figure for `NCc1cccc(-n2nc(C(F)(F)F)cc2C(=O)Nc2cccc(N(CCC3CC3)c3ccccc3)c2)c1` [87f, 1-(3-(aminomethyl)phenyl)-N-(3-((2-cyclopropylethyl)(phenyl)amino)phenyl)-3-(trifluoromethyl)-1H-pyrazole-5-carboxamide] is 0.1 to 50 nM.
